This is an account of results in publication PMC11855827, “High-Throughput Screening of Five Compound Libraries for Anthelmintic Activity and Toxicity Leads to the Discovery of Two Flavonoid Compounds” (International Journal of Molecular Sciences, 2025).

This test concerns C. elegans.
Setting [1] is: Table S2, C. elegans SS assay, 110 μM, 0 h, averages of 4 data points.
Where [2] appears, read: Table S2, C. elegans SS assay, 110 μM, 24 h, averages of 4 data points.

Like-named read-outs stand apart in the source and are kept apart here.

With `CC(C)=C[C@H]1C[C@](C)(O)[C@@H]2[C@H]3CC[C@@H]4[C@@]5(C)CC[C@H](O[C@@H]6OC[C@H](O)[C@H](O[C@@H]7O[C@H](CO[C@@H]8O[C@H](CO)[C@@H](O)[C@H](O)[C@H]8O)[C@@H](O)[C@H](O)[C@H]7O[C@@H]7OC[C@@H](O)[C@H](O)[C@H]7O)[C@H]6O[C@@H]6O[C@@H](C)[C@H](O)[C@@H](O)[C@H]6O)C(C)(C)[C@@H]5CC[C@@]4(C)[C@@]34CO[C@@]2(C4)O1` [Jujuboside A], where the note is “110 µM”, the “Percentage of motility inhibition 0 h” value amounted to 0% and the “Percentage of motility inhibition 24 h” value worked out at 0%.

For `CC(C)=C[C@H]1C[C@](C)(O)[C@@H]2[C@H]3CC[C@@H]4[C@@]5(C)CC[C@H](O[C@@H]6OC[C@H](O)[C@H](O[C@@H]7O[C@H](CO)[C@@H](O)[C@H](O)[C@H]7O[C@@H]7OC[C@@H](O)[C@H](O)[C@H]7O)[C@H]6O[C@@H]6O[C@@H](C)[C@H](O)[C@@H](O)[C@H]6O)C(C)(C)[C@@H]5CC[C@@]4(C)[C@@]34CO[C@@]2(C4)O1` [Jujuboside B], under setting [1], the “Percentage of motility inhibition 0 h” value was 0%. Under setting [2], the “Percentage of motility inhibition 24 h” value is 0%.

For the molecule `O=c1c(O[C@@H]2O[C@H](CO[C@@H]3O[C@H](CO)[C@@H](O)[C@H](O)[C@H]3O)[C@@H](O)[C@H](O)[C@H]2O)c(-c2ccc(O)cc2)oc2cc(O)cc(O)c12` [Kaempferol 3‐O‐gentiobioside], the “Percentage of motility inhibition 0 h” value under setting [1] is 0%. Besides, the “Percentage of motility inhibition 24 h” value under setting [2] was 12%.

Consider `O=C(O)[C@H]1O[C@@H](Oc2c(-c3ccc(O)cc3)oc3cc(O)cc(O)c3c2=O)[C@H](O)[C@@H](O)[C@@H]1O` [Kaempferol 3‐O‐β‐D‐glucuronide], for which the “Percentage of motility inhibition 0 h” value under setting [1] is 5%. Under setting [2], the “Percentage of motility inhibition 24 h” value stood at 0%.

Consider `C[C@@H]1O[C@@H](O[C@H]2[C@H](Oc3c(-c4ccc(O)cc4)oc4cc(O)cc(O)c4c3=O)O[C@H](CO)[C@@H](O)[C@@H]2O)[C@H](O)[C@H](O)[C@H]1O` [Kaempferol 3‐neohesperidoside], for which the “Percentage of motility inhibition 0 h” value under setting [1] is on record as 17%. Further, the “Percentage of motility inhibition 24 h” value under setting [2] is reported as 10%.

On to `C[C@@H]1O[C@@H](O[C@H]2[C@H](Oc3c(-c4ccc(O)cc4)oc4cc(O)cc(O)c4c3=O)O[C@H](CO)[C@@H](O)[C@@H]2O)[C@H](O)[C@H](O)[C@H]1O` [Kaempferol‐3‐O‐glucorhamnoside], for which the “Percentage of motility inhibition 0 h” value under setting [1] is 5%. In addition, the “Percentage of motility inhibition 24 h” value under setting [2] is recorded as 2%.

Consider `C[C@@]12C=Cc3occc3[C@H]1CC[C@@]13C[C@@H](CC[C@H]12)[C@@](O)(CO)C3` [Kahweol], for which, under setting [1], the “Percentage of motility inhibition 0 h” value was determined as 11%. In addition, the “Percentage of motility inhibition 24 h” value under setting [2] is reported as 19%.

As for `C=C1CC[C@@H]2[C@](C)(COC(=O)CCC(=O)[O-])[C@H](OC(=O)CCC(=O)O)CC[C@@]2(C)[C@@H]1/C=C/C1=CCOC1=O.[K+]` [Kalii Dehydrographolidi Succinas], the “Percentage of motility inhibition 0 h” value under setting [1] amounted to 5%. The “Percentage of motility inhibition 24 h” value under setting [2] came out at 5%.

In the case of `NC[C@H]1O[C@H](O[C@H]2[C@H](O)[C@@H](O[C@H]3O[C@H](CO)[C@@H](O)[C@H](N)[C@H]3O)[C@H](N)C[C@@H]2N)[C@H](O)[C@@H](O)[C@@H]1O.O=S(=O)(O)O` [Kanamycin (sulfate)], under setting [1], the “Percentage of motility inhibition 0 h” value was found to be 22%. Further, the “Percentage of motility inhibition 24 h” value under setting [2] came out at 7%.

Turning to `C[C@@H]1CC[C@@H]2O[C@@]23C(=O)C(=O)[C@@H]2[C@@H](C2(C)C)[C@@]13C` [Kanshone C], the “Percentage of motility inhibition 0 h” value under setting [1] came out at 17%. Besides, the “Percentage of motility inhibition 24 h” value under setting [2] turned out to be 22%.

Regarding `C[C@H]1O[C@H](OC2[C@@H](O)[C@@H](O)C(O)[C@H](O)[C@H]2O)[C@@H](N)C[C@@H]1N=C(N)C(=O)O.Cl.O` (stereo partly shown) [Kasugamycin (hydrochloride hydrate)], the “Percentage of motility inhibition 0 h” value under setting [1] is 12%. Besides, the “Percentage of motility inhibition 24 h” value under setting [2] was 0%.

On to `CC1(C)CCC[C@]2(C)[C@@H]1CC[C@@]13C[C@H](CC[C@H]12)[C@@](O)(CO)C3` [Kauran-16,17-diol], for which the “Percentage of motility inhibition 0 h” value under setting [1] came to 0%. Besides, under setting [2], the “Percentage of motility inhibition 24 h” value amounted to 22%.

For `C[C@@H]1CC[C@@]2(NC1)O[C@H]1C[C@H]3[C@@H]4CC=C5C[C@@H](O[C@@H]6O[C@H](CO)[C@@H](O[C@@H]7O[C@@H](C)[C@H](O)[C@@H](O)[C@H]7O)[C@H](O)[C@H]6O)CC[C@]5(C)[C@H]4CC[C@]3(C)[C@H]1[C@@H]2C` [Khasianine], the “Percentage of motility inhibition 0 h” value under setting [1] is listed as 19%. For the same molecule, the “Percentage of motility inhibition 24 h” value under setting [2] is reported as 10%.

In the case of `OC[C@H]1O[C@@H](Oc2cc3c(O)cc(O)cc3[o+]c2-c2ccc(O)c(O)c2)[C@H](O)[C@@H](O)[C@@H]1O.[Cl-]` [Kuromanin (chloride)], the “Percentage of motility inhibition 0 h” value under setting [1] is recorded as 34%. Moreover, under setting [2], the “Percentage of motility inhibition 24 h” value is 5%.

On to `C=C(C)[C@H](CC=C(C)C)Cc1c(O)cc(OC)c2c1O[C@H](c1ccc(O)cc1O)[C@@H](O)C2=O` [Kushenol I], for which the “Percentage of motility inhibition 0 h” value under setting [1] is on record as 0%. The “Percentage of motility inhibition 24 h” value under setting [2] was 8%.

Turning to `CC(C)=CCc1c(O)ccc(C(=O)[C@@H]2[C@@H](c3c(O)cc(O)c4c(=O)c(CC=C(C)C)c(-c5ccc(O)cc5O)oc34)C=C(C)C[C@H]2c2ccc(O)cc2O)c1O` [Kuwanon H], the “Percentage of motility inhibition 0 h” value under setting [1] came to 11%. Besides, the “Percentage of motility inhibition 24 h” value under setting [2] came out at 23%.

On to `O=C(O)c1cc(=O)c2ccccc2[nH]1` [Kynurenic acid], for which the “Percentage of motility inhibition 0 h” value under setting [1] worked out at 17%. For the same molecule, the “Percentage of motility inhibition 24 h” value under setting [2] worked out at 0%.

`N=C(N)NCCC[C@H](N)C(=O)O.N[C@@H](CCC(=O)O)C(=O)O` [L-Arginine (L-glutamate)]: the “Percentage of motility inhibition 0 h” value under setting [1] was determined as 22%. The “Percentage of motility inhibition 24 h” value under setting [2] was found to be 0%.

As to `Cl.N=C(N)NCCC[C@H](N)C(=O)O` [L-Arginine (hydrochloride)], under setting [1], the “Percentage of motility inhibition 0 h” value came out at 20%. Further, the “Percentage of motility inhibition 24 h” value under setting [2] came out at 17%.

Turning to `O=C1O[C@H]([C@@H](O)CO)C([O-])=C1O.[Na+]` [L-Ascorbic acid (sodium salt)], the “Percentage of motility inhibition 0 h” value under setting [1] is given as 6%. For the same molecule, the “Percentage of motility inhibition 24 h” value under setting [2] was found to be 3%.

`NC(=O)C[C@H](N)C(=O)O` [L-Asparagine]: the “Percentage of motility inhibition 0 h” value under setting [1] was determined as 27%. Further, the “Percentage of motility inhibition 24 h” value under setting [2] came out at 25%.

`C[N+](C)(C)C[C@H](O)CC(=O)[O-]` [L-Carnitine]: under setting [1], the “Percentage of motility inhibition 0 h” value worked out at 7%. Besides, the “Percentage of motility inhibition 24 h” value under setting [2] was 1%.

On to `N[C@@H](CCC(=O)O)C(=O)[O-].[Na+]` [L-Glutamic acid (monosodium salt)], for which the “Percentage of motility inhibition 0 h” value under setting [1] is 1%. The “Percentage of motility inhibition 24 h” value under setting [2] stood at 0%.

Regarding `CN1[C@@H]2CC[C@H]1CC(OC(=O)[C@H](CO)c1ccccc1)C2.CN1[C@@H]2CC[C@H]1CC(OC(=O)[C@H](CO)c1ccccc1)C2.O=S(=O)(O)O` (stereo partly drawn) [L-Hyoscyamine (sulfate)], under setting [1], the “Percentage of motility inhibition 0 h” value amounted to 1%. Also, the “Percentage of motility inhibition 24 h” value under setting [2] came out at 6%.

In the case of `CN1[C@@H]2CC[C@H]1C[C@@H](OC(=O)[C@H](CO)c1ccccc1)C2` [L-Hyoscyamine], the “Percentage of motility inhibition 0 h” value under setting [1] is given as 55%. Under setting [2], the “Percentage of motility inhibition 24 h” value turned out to be 28%.

Take `NCCCC[C@H](N)C(=O)O.O` [L-Lysine hydrate]: the “Percentage of motility inhibition 0 h” value under setting [1] is listed as 8%. Also, the “Percentage of motility inhibition 24 h” value under setting [2] is 2%.

As to `Cl.NCCCC[C@H](N)C(=O)O` [L-Lysine hydrochloride], the “Percentage of motility inhibition 0 h” value under setting [1] was 19%. Further, the “Percentage of motility inhibition 24 h” value under setting [2] amounted to 0%.

As for `NCCC[C@H](N)C(=O)O` [L-Ornithine], the “Percentage of motility inhibition 0 h” value under setting [1] is reported as 2%. In addition, the “Percentage of motility inhibition 24 h” value under setting [2] is 4%.

As to `C=C(C)[C@@H]1CC=C(C=O)CC1` [L-Perillaldehyde], under setting [1], the “Percentage of motility inhibition 0 h” value amounted to 22%. Further, the “Percentage of motility inhibition 24 h” value under setting [2] worked out at 25%.

For `C=C1C(=O)O[C@@H]2[C@H]3C(CO)=CC(=O)C3=C(C)C[C@H](OC(=O)Cc3ccc(O)cc3)[C@@H]12` [Lactupicrin], under setting [1], the “Percentage of motility inhibition 0 h” value came to 7%. Moreover, the “Percentage of motility inhibition 24 h” value under setting [2] amounted to 25%.

Consider `COc1cc2c(cc1O)-c1c(OC)c(O)cc3c1[C@H](C2)NCC3` [Laetanine], for which, under setting [1], the “Percentage of motility inhibition 0 h” value is on record as 0%. Moreover, the “Percentage of motility inhibition 24 h” value under setting [2] is 0%.

Take `CC[C@@H](C(=O)[C@@H](C)[C@@H](O)[C@H](C)CCc1ccc(C)c(O)c1C(=O)[O-])[C@H]1O[C@](CC)([C@H]2CC[C@](O)(CC)[C@H](C)O2)C[C@@H]1C.[Na+]` [Lasalocid (sodium)]: the “Percentage of motility inhibition 0 h” value under setting [1] amounted to 15%. In addition, the “Percentage of motility inhibition 24 h” value under setting [2] is reported as 4%.

Regarding `C=C1CC[C@H]2[C@@H](/C=C(\C)C(=O)[C@@]3(O)C[C@H](C)[C@H](O)[C@@H]3[C@@H]1O)C2(C)C` [Lathyrol], under setting [1], the “Percentage of motility inhibition 0 h” value was determined as 1%. Moreover, the “Percentage of motility inhibition 24 h” value under setting [2] is reported as 3%.

As to `CCCCCCCCCCCC(=O)O` [Lauric acid], the “Percentage of motility inhibition 0 h” value under setting [1] is recorded as 58%. The “Percentage of motility inhibition 24 h” value under setting [2] is 61%.

Consider `COc1cc2c(cc1O)C[C@@H]1NCCc3cc(O)c(OC)c-2c31.Cl` [Laurolitsine (hydrochloride)], for which, under setting [1], the “Percentage of motility inhibition 0 h” value is reported as 36%. The “Percentage of motility inhibition 24 h” value under setting [2] came to 5%.

As for `COC(=O)N[C@H](C(=O)N1CC2(CC2)C[C@H]1c1ncc(-c2ccc3c(c2)C(F)(F)c2cc(-c4ccc5nc([C@@H]6[C@H]7CC[C@H](C7)N6C(=O)[C@@H](NC(=O)OC)C(C)C)[nH]c5c4)ccc2-3)[nH]1)C(C)C.O=C(O)C(O)C(O)C(=O)O` [Ledipasvir (D‐tartrate)], under setting [1], the “Percentage of motility inhibition 0 h” value came out at 34%. Besides, under setting [2], the “Percentage of motility inhibition 24 h” value was 13%.

On to `COC(=O)N[C@H](C(=O)N1CC2(CC2)C[C@H]1c1nc(-c2ccc3c(c2)C(F)(F)c2cc(-c4ccc5[nH]c([C@@H]6[C@H]7CC[C@H](C7)N6C(=O)[C@@H](NC(=O)OC)C(C)C)nc5c4)ccc2-3)c[nH]1)C(C)C` [Ledipasvir (acetone)], for which the “Percentage of motility inhibition 0 h” value under setting [1] came to 14%. Also, the “Percentage of motility inhibition 24 h” value under setting [2] was 4%.

As to `CC(C)c1ccc2c(c1)CC[C@H]1[C@](C)(CN)CCC[C@]21C.Cl` [Leelamine (hydrochloride)], the “Percentage of motility inhibition 0 h” value under setting [1] is 22%. In addition, the “Percentage of motility inhibition 24 h” value under setting [2] is recorded as 57%.
